This is an account of results in ChEMBL document CHEMBL5380816, “Inclusion of Nitrofurantoin into the Realm of Cancer Chemotherapy via Biology-Oriented Synthesis and Drug Repurposing” (J Med Chem, 2023).

Assay [1] deals with dsDNA. Kind of assay: Induction of damage in dsDNA (unknown origin) assessed as disrupted by DNA by measuring decrease in fluorescence intensity at 100 uM incubated for 50 mins by EvaGreen based fluorescence plate reader analysis. It is filed as nucleic-acid assay.
In assay [2] the test system is MCF7. Description: Induction of apoptosis in human MCF7 cells assessed as necrotic cells incubated at 0.11 uM for 72 hrs by annexin V-FITC based propidium iodide dual staining assay (reference value: 0.03%). It is filed as functional.
Assay [3] concerns HeLa. Kind of assay: Induction of apoptosis in human HeLa cells assessed as necrotic cells incubated at 0.11 uM for 72 hrs by annexin V-FITC based propidium iodide dual staining assay (reference value: 0%). Format: functional.
For assay [4], the system named is Caco-2. Kind of assay: Anticancer activity against human Caco-2 cells incubated for 24 hrs by MTT assay. It is filed as functional, cell-based. The note with it: Caco-2, 24 h.
Assay [5] has as its system HeLa. Description: Anticancer activity against human HeLa cells assessed as losing contact with neighbouring cells incubated at 0.11 uM for 72 hrs by phase contrast inverted microscopic analysis. Format: functional, cell-based.
For assay [6], the system named is Caco-2. Kind of assay: Induction of apoptosis in human Caco-2 cells assessed as late apoptotic cells by measuring orange to red patch incubated at 0.11 uM for 72 hrs by acridine orange-ethidium bromide dual staining based fluorescence microscopic analysis. It is filed as functional, cell-based.
The test system of assay [7] is HepG2. Description: Induction of oxidative stress in human HepG2 cells assessed as cell death by measuring redox alteration fluorescence incubated at 0.027 uM for 72 hrs in presence of dihydro dichlorofluorescein diacetate by DCFH-DA based flow cytometric analysis relative to control. It is filed as functional. Background: A flow cytometer gives signals particle by particle.

Assay [8] deals with HeLa. Description: Anticancer activity against human HeLa cells assessed as smaller cells incubated at 0.11 uM for 72 hrs by phase contrast inverted microscopic analysis. Format: functional, cell-based.
Assay [9] concerns MCF7. Description: Induction of apoptosis in human MCF7 cells assessed as viable cells incubated at 0.11 uM for 72 hrs by annexin V-FITC based propidium iodide dual staining assay (reference value: 99.9%). It is filed as functional. As to conditions: read-out: Activity.
In assay [10] the test system is Caco-2. Description: Induction of apoptosis in human Caco-2 cells assessed as total apoptotic cells incubated at 0.017 uM for 72 hrs by annexin V-FITC based propidium iodide dual staining assay (reference value: 0.04 +/- 0.005%). Format: functional.
The subject of assay [11] is HepG2. Kind of assay: Induction of apoptosis in human HepG2 cells assessed as viable cells by measuring green uniform patch incubated at 0.017 uM for 72 hrs by acridine orange-ethidium bromide dual staining based fluorescence microscopic analysis. It is filed as functional, cell-based.
For assay [12], the system named is HeLa. Description: Induction of oxidative stress in human HeLa cells assessed as cell death by measuring redox alteration fluorescence incubated at 0.027 uM for 72 hrs in presence of dihydro dichlorofluorescein diacetate by DCFH-DA based flow cytometric analysis relative to control. Format: functional.
The test system of assay [13] is Caco-2. Description: Induction of apoptosis in human Caco-2 cells assessed as late apoptotic cells incubated at 0.017 uM for 72 hrs by annexin V-FITC based propidium iodide dual staining assay (reference value: 0.02%). It is filed as functional.
For assay [14], the system named is MCF7. Description: Induction of apoptosis in human MCF7 cells assessed as early apoptotic cells by measuring bright green patch incubated at 0.098 uM for 72 hrs by acridine orange-ethidium bromide dual staining based fluorescence microscopic analysis. It is filed as functional, cell-based.
Assay [15] concerns HepG2. Kind of assay: Anticancer activity against human HepG2 cells assessed as smaller cells incubated at 0.098uM for 72 hrs by phase contrast inverted microscopic analysis. It is filed as functional, cell-based.
The subject of assay [16] is HeLa. Kind of assay: Induction of apoptosis in human HeLa cells assessed as total apoptotic cells incubated at 0.098 uM for 72 hrs by annexin V-FITC based propidium iodide dual staining assay (reference value: 0 +/- 0.035%). Format: functional.
The subject of assay [17] is HepG2. Description: Anticancer activity against human HepG2 cells assessed as losing contact with neighbouring cells incubated at 0.098uM for 72 hrs by phase contrast inverted microscopic analysis. Format: functional, cell-based.
Assay [18] has as its system HeLa. Kind of assay: Induction of apoptosis in human HeLa cells assessed as pro-oxidant effect by measuring free radical generation measured at 0.098 uM after 72 hrs. Format: functional, cell-based.
In assay [19] the test system is MCF7. Kind of assay: Induction of apoptosis in human MCF7 cells assessed as total apoptotic cells incubated at 0.098 uM for 72 hrs by annexin V-FITC based propidium iodide dual staining assay (reference value: 0.04 %). Format: functional.
Assay [20] deals with HepG2. Description: Induction of apoptosis in human HepG2 cells assessed as total apoptotic cells incubated at 0.098 uM for 72 hrs by annexin V-FITC based propidium iodide dual staining assay (reference value: 0.99 +/- 0.02%). Format: functional.
Assay [21] has as its system MCF7. Kind of assay: Anticancer activity against human MCF7 cells assessed as round cells incubated at 0.098uM for 72 hrs by phase contrast inverted microscopic analysis. It is filed as functional, cell-based.
The subject of assay [22] is HepG2. Kind of assay: Anticancer activity against human HepG2 cells assessed as round cells incubated at 0.097uM for 72 hrs by phase contrast inverted microscopic analysis. Format: functional, cell-based.
For assay [23], the system named is HepG2. Kind of assay: Anticancer activity against human HepG2 cells assessed as smaller cells incubated at 0.097uM for 72 hrs by phase contrast inverted microscopic analysis. Format: functional, cell-based.
The test system of assay [24] is Caco-2. Kind of assay: Induction of apoptosis in human Caco-2 cells assessed as late apoptotic cells by measuring orange to red patch incubated at 0.097 uM for 72 hrs by acridine orange-ethidium bromide dual staining based fluorescence microscopic analysis. Format: functional, cell-based.
Assay [25] deals with MCF7. Description: Anticancer activity against human MCF7 cells assessed as smaller cells incubated at 0.097uM for 72 hrs by phase contrast inverted microscopic analysis. It is filed as functional, cell-based.
Assay [26] concerns HepG2. Description: Induction of apoptosis in human HepG2 cells assessed as early apoptotic cells incubated at 0.097 uM for 72 hrs by annexin V-FITC based propidium iodide dual staining assay (reference value: 1.74%). It is filed as functional.
Assay [27] concerns MCF7. Kind of assay: Induction of apoptosis in human MCF7 cells assessed as early apoptotic cells by measuring bright green patch incubated at 0.097 uM for 72 hrs by acridine orange-ethidium bromide dual staining based fluorescence microscopic analysis. It is filed as functional, cell-based.
Assay [28] concerns HeLa. Description: Induction of apoptosis in human HeLa cells assessed as caspase3/7 activation at 0.097 uM using caspase-glo 3/7 as substrate relative to control. It is filed as functional.
Assay [29] deals with MCF7. Description: Induction of apoptosis in human MCF7 cells assessed as caspase3/7 activation at 0.097 uM using caspase-glo 3/7 as substrate relative to control. It is filed as functional.
For assay [30], the system named is Caco-2. Description: Anticancer activity against human Caco-2 cells assessed as cell shrinkage incubated at 0.097uM for 72 hrs by phase contrast inverted microscopic analysis. Format: functional, cell-based.
Assay [31] deals with MCF7. Kind of assay: Anticancer activity against human MCF7 cells assessed as round cells incubated at 0.097uM for 72 hrs by phase contrast inverted microscopic analysis. It is filed as functional, cell-based.
In assay [32] the test system is HepG2. Kind of assay: Induction of apoptosis in human HepG2 cells assessed as viable cells incubated at 0.097 uM for 72 hrs by annexin V-FITC based propidium iodide dual staining assay (reference value: 97.27%). Format: functional. As to conditions: read-out: Activity.
The subject of assay [33] is HepG2. Description: Anticancer activity against human HepG2 cells assessed as absence of normal spindle shape incubated at 0.097uM for 72 hrs by phase contrast inverted microscopic analysis. It is filed as functional, cell-based.
Assay [34] deals with HeLa. Kind of assay: Induction of apoptosis in human HeLa cells assessed as late apoptotic cells by measuring orange to red patch incubated at 0.097 uM for 72 hrs by acridine orange-ethidium bromide dual staining based fluorescence microscopic analysis. It is filed as functional, cell-based.
Assay [35] concerns HeLa. Description: Anticancer activity against human HeLa cells assessed as absence of normal spindle shape incubated at 0.097uM for 72 hrs by phase contrast inverted microscopic analysis. It is filed as functional, cell-based.
The subject of assay [36] is Caco-2. Description: Induction of apoptosis in human Caco-2 cells assessed as early apoptotic cells incubated at 0.097 uM for 72 hrs by annexin V-FITC based propidium iodide dual staining assay (reference value: 0.07%). Format: functional.

Structures are written as SMILES. The source made the active and inactive calls. The calls are words filed in the database; no cut-off is given here.

The term IC50 denotes the concentration at which inhibition is half-maximal. A lower IC50 goes with higher potency. Turning to `C#CCN1C(=O)CN(/N=C/c2ccc([N+](=O)[O-])o2)C1=O`, the result in [1], in [5], in assay [6] and in assay [8] was Active. The Activity in assay [2] was 4.01%; in [3], 2.48%; in assay [7], 54.19%. In addition, the IC50 in [4] is 89 µM. The viability at 0.11 µM in [9] amounted to 53.7%.
Take `O=c1[nH]cc(F)c(=O)[nH]1` [FLUOROURACIL]: the Activity worked out at 3.68% in [10], 4.91% in [12] and 2.71% in assay [13]. Also, the outcome in assay [11] was Active.
For `O=C(CN1C(=O)CN(/N=C/c2ccc([N+](=O)[O-])o2)C1=O)c1ccc(Cl)cc1`, the outcome in assay [14], in assay [15], in assay [17], in [18] and in assay [21] was Active. The Activity in assay [16] was 64.08%; in assay [19], 41.73%; in [20], 38.74%.
As for `NS(=O)(=O)c1ccc(-n2cc(CN3C(=O)CN(/N=C/c4ccc([N+](=O)[O-])o4)C3=O)nn2)cc1`, the result in assay [22], in assay [23], in assay [24], in [25], in [27] and in [30] was Active. Moreover, the result in [31], in [33], in assay [34] and in assay [35] was Active. The Activity in [26] amounted to 21.02%; in assay [28] it was 58%; in assay [29] it was 58%; in assay [36], 30.95%. Further, in assay [32], the viability at 0.097 µM was found to be 78.9%.
